According to patent US20210244028A1, “TREATMENT FOR REMOVING ECTOPARASITES FROM FISH” (priority 2018, published 2021):
Where “and” joins values, the source holds several entries; their conditions need not be identical. Identical values can stand only once. Like-named read-outs stand apart in the source and are kept apart here.

Legend:
[1] = tested on: Salmon lice; experiment: Bath treatment of lice-infected Atlantic salmon, percent lice removed (Example 7); type: in vivo; settings: 0.1 mg/l, 30 minutes, duplicate, 3 fish per test
Procedure: To determine the concentration- and time-dependence of imidacloprid treatment in vivo, Atlantic salmon (average of 320.9 g) were challenged with imidacloprid in seawater ([…] salinity) at 12° C. The water level in the tank was lowered and aeration was employed during administration of the active. The salmon louse copepodid culture was counted and adjusted to obtain a target level of around 40 copepodids per fish in the challenge tank at each challenge time point.
Salmon lice on the fish were counted using standard methods. Only lice on the fish's outer surface, not including gills and oral/buccal cavities, were investigated.
Numbers of dissociated lice in tank water or attached to the tank walls were recorded. Lice in the tank water were collected and assessed for ability to attach by suction to a smooth plastic surface immediately after treatment and again after 30-60 minutes (to assess possible revival). […]
To terminate the treatment, the inner compartment with treated fish was lifted to the surface and drained, then fish were transferred directly and without water to a second basin with a lethal overdose of anaesthetic and left until dead. All lice remaining on these fish and lice that fell off in the anaesthetic bath were recorded. […]

[2] = tested on: azamethiphos- and deltamethrin-resistant sea lice; experiment: In vitro bath exposure of isolated sea lice (Example 6); settings: 60 minutes exposure, registered approx. 20 h after end of exposure
Procedure: A trial was performed to ensure there was no cross-resistance between azamethiphos- and deltamethrin-resistant sea lice and neonicotinoids. Both pre-adult and adult stages (mobile stages) of both sexes were used, and they were equally distributed among groups. The sea lice were exposed to imidacloprid for 60 minutes, azamethiphos for 60 minutes and deltamethrin for 30 minutes in one litre baths at a range of concentrations (Tables 6, 7 and 8). The sea lice were transferred to clean aerated seawater after treatment. The temperature of the seawater during the experiment was 12° C., but during exposure the temperature raised to approx. 14° C. in regimes exposed for 60 min. (imidacloprid and azamethiphos) and to 13° C. for the regime exposed in 30 minutes (deltamethrin).
The numbers of live and immobilised (including killed) lice in each regime were registered approximately 20 h after end of exposure. Each louse was individually investigated.

[3] = tested on: Lepeophtheirus salmonis; settings: for percentage of sea lice that dropped from treated fish at the end of the treatment period / knockdown times (mean±SEM) / percentage of lice for which their knockdown time equalled that of the exposure time: 20 ppm (nitenpyram 19 ppm); for percentage of sea lice that dropped from treated fish at the end of the treatment period: culled fish; for knockdown times (mean±SEM) / percentage of lice for which their knockdown time equalled that of the exposure time: * only one louse knocked down
Procedure: The fish were acclimatised until normal feeding behaviour resumed, up to a maximum of 10 days, prior to challenge. The fish were housed in 750 litre tanks at a stocking density of no greater than 35 kg/m3. Tanks were provided with a continuous supply of seawater at a flow rate greater than 5 L/min at a temperature of 4.8-10.4° C. The photoperiod was set at 12 hours light: 12 hours dark.
The fish were challenged in a static bath with copepodid instar of Lepeophtheirus salmonis with the appearance of egg strings freshly removed from adult female lice at a target titre of 1,250-1,700 copepodids per tank
Egg strings were harvested from gravid sea lice and incubated in upwelling chambers until nauplii eclosion. Nauplii were allowed to moult through to the copepodid instar (5 days at approx. 10° C.) and then the tank water was filtered through a 100 μm mesh before re-suspending the copepodids in 225 mL of sea water. A 25 mL sample was removed which was then split into 1-2 mL samples in a 24-well plate and the nauplii/copepodids were counted under a stereo microscope. When abundance was sufficient and a minimum of 80% were copepodids the fish were challenged for 8 hours under static flow in the dark.
Fish were randomly selected from tanks, lightly sedated in a 90 ppm MS222 solution sufficient only to induce loss of equilibrium before being sacrificed by a non-recoverable blow to the head. Between 4 and 33 fish were required per treatment.
Culled fish were then suspended in treatment tanks. Fish were suspended in the tank horizontally from cable ties (one through the opercular cavity, one around the peduncle) and wire attached to a wooden rod). One 20 L tank of test item at 20 ppm was used per day. Lice on culled fish were exposed for either 5, 10, 15, 30 or 60 minutes (negative control was only exposed for 60 minutes as this would cover the longest exposure period to be tested). The order within treatment was randomised.
(§1) Lice were monitored continuously for the duration of the exposure and behavioural observations noted, including detachment of lice from fish. At the end of exposure lice were either removed from the tank or fish, placed into small vented plastic screw-top containers (125 mL, LDPE, 25 mm hole drilled into lid and secured with 200 μm mesh), and transferred to a clean tank supplied with filtered sea water and held there for 24 h. Lice which had detached from fish were kept separate from those that had not detached.
On the day of exposure, 200 mg of the test ectoparasite treatments was added to 1 L of sea water. Only 192 mg of nitenpyram was supplied. The solution was mechanically stirred for 30 minutes, using a stirring plate and magnetic flea (VWR), at a speed sufficient to generate a strong vortex to ensure a homogenous solution. This was then transferred into an approx. 25 L clear plastic tank containing 9 L of sea water. The solution was then mixed for a further 10 minutes using a small pump (Fluval Sea CP1), which was then removed from the tank prior to addition of fish.
Each treatment requiring 1 to 4 fish per individual treatment per replicate and 2 to 13 fish per group per replicate. Treatments with negative control (sea water), dinotefuran, clothianidin and thiamethoxam were replicated twice, and for imidacloprid three times. There was only one replicate per treatment for nitenpyram. The mean number of lice used per individual treatment was 5.5 to 10, with the mean per group being 6.2-7.2 lice.

[4] = tested on: Lepeophtheirus salmonis; settings: for percentage responsiveness of lice recovered from tank at treatment end at 24 hours post-treatment: lice knocked off fish
Procedure: as §1
24 h post-treatment lice were removed from the screw-top containers to check if they were alive and, if so, if they were responsive. Categories were defined as follows: alive—movement detected; responsive—alive and actively avoids stimulation in a coordinated manner; dead—no movement detected.
Lice defined as responsive could potentially re-attach to a fish. After assessment lice were transferred to 70% alcohol in case determination of instar and sex was required.

[5] = exposure 5 min, 20 ppm (nitenpyram 19 ppm), 24 h post-treatment
[6] = exposure 10 min, 20 ppm (nitenpyram 19 ppm), 24 h post-treatment
[7] = exposure 15 min, 20 ppm (nitenpyram 19 ppm), 24 h post-treatment
[8] = exposure 15 min, 20 ppm (nitenpyram 19 ppm)
[9] = exposure 30 min, 20 ppm (nitenpyram 19 ppm), 24 h post-treatment
[10] = exposure 30 min, 20 ppm (nitenpyram 19 ppm)
[11] = exposure 60 min, 20 ppm (nitenpyram 19 ppm), 24 h post-treatment
[12] = exposure 60 min, 20 ppm (nitenpyram 19 ppm)

| Compound | percentage of sea lice that dropped from treated fish at the end of the treatment period ([3]; exposure 5 min) [%] | percentage of sea lice that dropped from treated fish at the end of the treatment period ([3]; exposure 10 min) [%] | percentage of sea lice that dropped from treated fish at the end of the treatment period ([3]; exposure 15 min) [%] | knockdown times (mean±SEM) ([3]; exposure 15 min) | percentage of lice for which their knockdown time equalled that of the exposure time ([3]; exposure 15 min) | percentage of sea lice that dropped from treated fish at the end of the treatment period ([3]; exposure 30 min) [%] | knockdown times (mean±SEM) ([3]; exposure 30 min) | percentage of lice for which their knockdown time equalled that of the exposure time ([3]; exposure 30 min) | percentage of sea lice that dropped from treated fish at the end of the treatment period ([3]; exposure 60 min) [%] | knockdown times (mean±SEM) ([3]; exposure 60 min) | percentage of lice for which their knockdown time equalled that of the exposure time ([3]; exposure 60 min) | percentage responsiveness for sea lice recovered from fish at the end of the treatment period [4, 5] [%] | percentage responsiveness for sea lice recovered from fish at the end of the treatment period [4, 6] [%] | percentage responsiveness for sea lice recovered from fish at the end of the treatment period [4, 7] [%] | percentage responsiveness of lice recovered from tank at treatment end at 24 hours post-treatment [4, 8] [%] | percentage responsiveness for sea lice recovered from fish at the end of the treatment period [4, 9] [%] | percentage responsiveness of lice recovered from tank at treatment end at 24 hours post-treatment [4, 10] [%] | percentage responsiveness for sea lice recovered from fish at the end of the treatment period [4, 11] [%] | percentage responsiveness of lice recovered from tank at treatment end at 24 hours post-treatment [4, 12] [%] | other results |
| --- | --- | --- | --- | --- | --- | --- | --- | --- | --- | --- | --- | --- | --- | --- | --- | --- | --- | --- | --- | --- |
| COP(=O)(OC)SCn1c(=O)oc2cc(Cl)cnc21 [azamethiphos] |  |  |  |  |  |  |  |  |  |  |  |  |  |  |  |  |  |  |  | % Removal [1]: 3.0^33% and 3.8^52%; % effect ([2]; 5 ppm): 0%; Immobilised ([2]; 5 ppm): 0; Live ([2]; 5 ppm): 10; % effect ([2]; 10 ppm): 10%; Immobilised ([2]; 10 ppm): 1; Live ([2]; 10 ppm): 9; % effect ([2]; 15 ppm): 0%; Immobilised ([2]; 15 ppm): 0; Live ([2]; 15 ppm): 10; % effect ([2]; 20 ppm): 10% and 20%; Immobilised ([2]; 20 ppm): 1 and 2; Live ([2]; 20 ppm): 9 and 8; Live ([2]; 30 ppm): 9 and 6 |
| CN/C(=N\[N+](=O)[O-])NCc1cnc(Cl)s1 [clothianidin] | 0 | 0 | 9.1 | 900* seconds | 100* % | 69.2 | 1706 ± 71 s | 77.8% | 54.5 | 2289 ± 424 s | 33.3% | 100 | 93 | 90 | 0 | 75 | 44 | 100 | 33 |  |
| CN/C(=N/CC1CCOC1)N[N+](=O)[O-] (stereo not shown) [dinotefuran] | 0 | 0 | 0 | 900* seconds | 100* % | 7.7 | 1800* seconds | 100* % | 53.3 | 3109 ± 224 s | 25% |  |  |  | 100 |  | 0 |  | 71 | percentage responsiveness for sea lice recovered from fish at the end of the treatment period [4]: 88% and 73% and 100% and 69% and 83% |
| CCN(Cc1ccc(Cl)nc1)/C(=C/[N+](=O)[O-])NC [nitenpyram] | 0 | 0 | 16.7 | 900* seconds | 100* % | 0 |  |  | 14.3 | 3600* seconds | 100* % | 100 | 100 | 100 | 0 | 100 |  | 100 | 0 | Responsiveness of lice still on fish at end of exposure ([4]; all exposure durations (5-60 min), 19 ppm): unaffected at all exposure durations |
| CN1COCN(Cc2cnc(Cl)s2)/C1=N\[N+](=O)[O-] [thiamethoxam] | 0 | 0 | 0 |  |  | 0 |  |  | 0 |  |  | 100 | 100 | 100 |  | 100 |  | 92 |  | Knockdown effect ([3]; 20 ppm, exposure 5 to 60 minutes): No knockdown |
